Consider 2 compounds from US20110104301A1, “METHODS OF REDUCING PAIN AND INFLAMMATION” (Georgetown University, A Congressionally Chartered …, priority 2008, published 2011).

One experiment concerns the target TRPV1 (Rattus norvegicus, UniProt O35433). Put plainly: Whole-cell patch-clamp of TRPV1-expressing HEK293 cells. The experiment is classed as cell-based. Set-up: expressed in transfected cells; host or cells: HEK 293F (Invitrogen), co-transfected with GFP cDNA. As to the method: (§1) Electrophysiology. […] Whole-cell and single-channel patch-clamp recordings were performed by using an EPC8 amplifier (HEKA Electronics). For whole-cell and excised patch recordings the bath solution contained 140 mMNaCl, 4 mMKCl, 1 mMMgCl2, 1.2 mMCaCl2, 10 mMHepes, 10 mM glucose, pH 7.3. For cell-attached experiments, NaCl was replaced with KCl in the bath solution. […] For neuronal recording NaCl was replaced with K-gluconate (plus 1 mMATP, 0.2 mM GTP). Solutions were applied via a gravity-fed system. […] Voltage-dependent properties were measured as described in Matt and Ahern, J. Physiol. […] The baseline currents under control conditions were subtracted. For cell-attached experiments, peak amplitudes were measured from all-points histograms, and open probability was measured as NPo>750 ms. Defolliculated Xenopus laevis oocytes were injected with ≈10 ng of hTRPA1 (gift of Ardem Patapoutian, The Scripps Research Institute, La Jolla, Calif.).
HEK cell and sensory neuron electrophysiology. […] Cell cultures were maintained at 37° C. with 5% CO2. Cells were transfected with rat TRPV 1 (gift of David Julius), and GFP cDNA using Lipofectamine™ Transfection Reagent (Invitrogen) and used 24-48 h after transfection. Nodose ganglia were obtained from adult mice (C57B16/J and TRPV1-null), cut, digested with collagenase, and cultured in Neurobasal +2% B-27 medium (Invitrogen), 0.1% L-glutamine and 1% penicillin/streptomycin on poly-D lysine-coated glass coverslips at 37° C. in 5% CO2. Neurons were used within 24-36 hr of culture. Whole-cell and single-channel patch clamp recordings were performed using an EPC8 amplifier (HEKA). The current signal was low-pass filtered at 1-3 kHz and sampled at 4 kHz. Currents were further filtered for display purposes. For whole-cell and excised patch recordings the bath solution contained (in mM): 140 NaCl, 4 KCl, 1 MgCl2, 1 EGTA, 10 HEPES, 10 glucose pH 7.3 (290 mOsm). The pipette solution contained (in mM): 140 CsC1, 10 NaCl, 10 HEPES, 5 EGTA, 2 Mg ATP and 0.03 GTP, pH 7.3. The peak amplitudes measured either during the prepulse or the tail current (within 1 ms) were plotted as a function of the test potential and normalized to the maximal current obtained from the following Boltzmann function: […]

For experiment [1], the system named is AITC-sensitive DRG neurons. Put plainly: Voltage- and current-clamp of DRG sensory neurons. The experiment is classed as cell-based, mouse. The following applies: 0.9 mM, wild-type mice, voltage-clamp, 11 of 35.
The target of a further experiment is T1, TRPM8 (Rattus norvegicus, UniProt Q8R455).
T1 construct: expressed in transfected cells; host or cells: HEK 293F
T1 sequence (Q8R455 whole entry): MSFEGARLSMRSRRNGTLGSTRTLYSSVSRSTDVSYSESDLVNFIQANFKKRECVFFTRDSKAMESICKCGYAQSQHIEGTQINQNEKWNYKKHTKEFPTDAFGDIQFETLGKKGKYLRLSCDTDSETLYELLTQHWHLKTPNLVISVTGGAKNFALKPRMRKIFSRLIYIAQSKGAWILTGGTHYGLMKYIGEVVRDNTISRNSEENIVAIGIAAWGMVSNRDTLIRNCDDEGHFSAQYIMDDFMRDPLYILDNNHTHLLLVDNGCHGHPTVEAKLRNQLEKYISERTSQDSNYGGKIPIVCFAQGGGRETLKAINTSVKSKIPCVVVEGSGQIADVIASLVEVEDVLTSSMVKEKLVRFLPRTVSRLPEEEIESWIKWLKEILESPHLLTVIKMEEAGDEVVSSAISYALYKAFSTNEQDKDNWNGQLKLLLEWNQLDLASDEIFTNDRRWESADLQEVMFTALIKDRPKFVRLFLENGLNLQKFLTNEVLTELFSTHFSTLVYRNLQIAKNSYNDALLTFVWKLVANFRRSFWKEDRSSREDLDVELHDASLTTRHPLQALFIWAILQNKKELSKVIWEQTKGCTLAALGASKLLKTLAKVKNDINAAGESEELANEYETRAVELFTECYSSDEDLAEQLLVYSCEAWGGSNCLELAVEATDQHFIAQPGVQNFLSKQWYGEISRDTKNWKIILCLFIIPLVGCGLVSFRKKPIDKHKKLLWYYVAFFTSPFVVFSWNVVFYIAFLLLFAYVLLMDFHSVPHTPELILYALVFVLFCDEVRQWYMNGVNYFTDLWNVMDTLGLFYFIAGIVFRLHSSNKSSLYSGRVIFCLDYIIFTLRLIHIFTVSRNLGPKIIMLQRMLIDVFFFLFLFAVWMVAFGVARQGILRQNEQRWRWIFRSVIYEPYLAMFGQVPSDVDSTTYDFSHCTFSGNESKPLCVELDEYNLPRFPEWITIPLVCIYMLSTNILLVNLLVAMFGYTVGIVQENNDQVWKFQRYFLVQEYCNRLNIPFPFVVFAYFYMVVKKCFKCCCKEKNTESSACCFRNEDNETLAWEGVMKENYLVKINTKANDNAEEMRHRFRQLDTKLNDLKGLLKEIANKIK
Put plainly: Whole-cell patch-clamp of TRPM8-expressing HEK293 cells. The class given is cell-based. The protocol: as §1
For orientation: Patch clamp records ionic current or voltage across a cell membrane.

Experiment [2] relates to DRG neurons from TRPA1-null mice. The experiment in a line: Ca2+ imaging in DRG neurons from TRPA1-null mice. The class given is cell-based, mouse. The following applies: desflurane n=125, propofol n=120. As to the method:
(§2) Ca^2+ Imaging. Neurons were loaded with 1 μM Fluo4-AM (Molecular Probes) for 20 min and washed for a further 10-20 min before recording. The dye was excited at 488±15 nm. Emitted fluorescence was filtered with a 535±25 nm bandpass filter, captured by a SPOT RT digital camera (Diagnostic Instruments) and read into a computer. Analysis was performed offline by using Simple PCI software (Compix Inc.).

For a further experiment, the system named is mTRPA1-dTM5. The experiment in a line: Current-voltage recordings of chimera mTRPA1-dTM5. The class given is cell-based. As to the method:
(§3) A genetic approach was used to identify critical sites in TRPA1 and TRPV1 required for activation by general anesthetics. Drosophila TRPA1 is insensitive to desflurane (at concentrations up to 3 mM). […] Note that dTRPA1 is insensitive to AITC. Next, several chimeric TRP proteins containing dTRPA1 (unresponsive to desflurane) and mTRPA1 were tested. For the dTRPA1-mN chimera, the mouse 720 amino acid N-terminus was exchanged for the drosophila N-terminus. The N-terminal domain contains essential binding sites for AITC, and therefore studying this chimera tests an important role for the N-terminus in anesthetic-sensing. […] The mTRPA1-dTM5 construct was then studied, which is the mouse protein containing the fifth transmembrane domain of the drosophila protein.

The target in the next experiment is T2, dTRPA1-mN chimera (UniProt Q7Z020+Q8BLA8).
T2 construct: mouse TRPA1 N-terminus (720 amino acids); expressed in transfected cells
T2 sequence (Q8BLA8+Q7Z020 fused, change not shown): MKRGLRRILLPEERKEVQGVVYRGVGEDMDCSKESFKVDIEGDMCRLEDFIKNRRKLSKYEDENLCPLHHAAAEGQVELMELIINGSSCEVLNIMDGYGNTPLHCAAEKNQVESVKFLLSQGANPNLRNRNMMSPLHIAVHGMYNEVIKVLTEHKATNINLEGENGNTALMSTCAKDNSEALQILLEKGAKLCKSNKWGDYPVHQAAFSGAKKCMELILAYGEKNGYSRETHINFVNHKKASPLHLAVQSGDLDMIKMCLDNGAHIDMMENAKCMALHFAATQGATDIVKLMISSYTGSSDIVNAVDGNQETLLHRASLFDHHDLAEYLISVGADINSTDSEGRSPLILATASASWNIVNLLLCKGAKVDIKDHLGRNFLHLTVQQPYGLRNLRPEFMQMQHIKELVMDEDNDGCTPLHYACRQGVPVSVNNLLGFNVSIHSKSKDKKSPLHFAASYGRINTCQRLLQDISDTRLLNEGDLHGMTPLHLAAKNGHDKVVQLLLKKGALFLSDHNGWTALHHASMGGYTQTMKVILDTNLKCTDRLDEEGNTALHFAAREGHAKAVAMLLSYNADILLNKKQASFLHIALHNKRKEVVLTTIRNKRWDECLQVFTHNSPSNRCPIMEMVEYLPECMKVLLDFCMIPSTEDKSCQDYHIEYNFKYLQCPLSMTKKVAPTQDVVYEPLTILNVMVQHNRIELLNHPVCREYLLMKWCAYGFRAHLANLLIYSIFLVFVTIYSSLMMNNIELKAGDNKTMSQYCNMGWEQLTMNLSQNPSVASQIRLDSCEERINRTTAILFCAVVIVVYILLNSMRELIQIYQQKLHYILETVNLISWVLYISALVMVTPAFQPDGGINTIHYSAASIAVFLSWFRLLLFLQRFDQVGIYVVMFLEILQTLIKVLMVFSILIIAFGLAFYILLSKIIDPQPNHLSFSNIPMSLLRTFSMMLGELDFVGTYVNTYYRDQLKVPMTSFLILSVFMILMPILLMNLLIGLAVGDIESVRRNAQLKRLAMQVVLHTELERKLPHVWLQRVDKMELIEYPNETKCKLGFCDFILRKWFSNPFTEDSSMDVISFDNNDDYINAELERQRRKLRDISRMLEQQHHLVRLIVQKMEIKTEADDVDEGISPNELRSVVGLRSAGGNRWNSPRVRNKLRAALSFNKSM
Put plainly: Current-voltage recordings of chimera dTRPA1-mN. To be noted: mouse N-terminus substituted. The class given is cell-based. The protocol:
as §3

A further experiment deals with DRG neurons. The experiment in a line: Ca2+ imaging in DRG neurons from wild-type mice. The experiment is classed as cell-based, mouse. The following applies: 1.5 mM, 3 MAC. As to the method:
as §2

Where [3] appears, read: isoflurane 0.9 mM, octanol 1 mM.

TRPV1, sequence (O35433 whole entry): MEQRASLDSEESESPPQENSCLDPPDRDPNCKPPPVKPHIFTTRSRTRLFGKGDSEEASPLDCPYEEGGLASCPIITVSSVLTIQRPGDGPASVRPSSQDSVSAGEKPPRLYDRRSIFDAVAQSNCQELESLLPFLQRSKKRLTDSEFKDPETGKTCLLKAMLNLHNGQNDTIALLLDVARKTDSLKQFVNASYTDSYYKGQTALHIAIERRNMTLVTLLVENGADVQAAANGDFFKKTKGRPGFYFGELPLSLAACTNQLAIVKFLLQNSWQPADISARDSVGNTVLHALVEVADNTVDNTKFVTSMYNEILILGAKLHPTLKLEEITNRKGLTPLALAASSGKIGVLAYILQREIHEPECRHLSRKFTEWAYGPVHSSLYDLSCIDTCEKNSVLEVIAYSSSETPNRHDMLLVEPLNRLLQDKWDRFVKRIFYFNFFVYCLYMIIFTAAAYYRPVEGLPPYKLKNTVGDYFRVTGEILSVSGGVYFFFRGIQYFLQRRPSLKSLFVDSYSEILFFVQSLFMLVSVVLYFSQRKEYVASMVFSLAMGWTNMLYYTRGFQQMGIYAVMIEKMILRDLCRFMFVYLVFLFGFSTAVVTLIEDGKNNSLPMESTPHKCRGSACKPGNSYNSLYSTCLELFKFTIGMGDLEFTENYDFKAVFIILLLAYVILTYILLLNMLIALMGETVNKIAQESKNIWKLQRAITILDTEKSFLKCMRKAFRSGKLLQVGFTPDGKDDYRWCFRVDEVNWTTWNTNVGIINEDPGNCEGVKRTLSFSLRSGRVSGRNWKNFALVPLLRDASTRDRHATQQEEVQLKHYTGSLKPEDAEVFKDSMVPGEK

As for `FC(F)OC(Cl)C(F)(F)F` (centres unmarked) [isoflurane], the “Activation of TRPV1 currents” value on TRPV1 (0.9 mM (2.9 MAC)) is “failed to activate”. Also, at TRPV1 (VGA 0.9 mM, PDBu 500 nM, room temperature (25° C.)), the “Currents evoked after PDBu treatment in TRPV1-expressing HEK293 cells” value was “activates currents”. Also, at TRPV1 (isoflurane 0.9 mM + octanol 1.8 mM), the “Effect on TRPV1 when applied together with saturating octanol” value was “negligible effects”. Besides, on TRPV1 (isoflurane 0.9 mM, n=5), the “Enhancement of maximal voltage-evoked TRPV1 current” value is 15±6% and the “Reduction of TRPV1 V1/2” value is 23.0±6.2 mV. Besides, the “Effects at TRPV1 at holding potential −50 mV” value on TRPV1 (setting [3]) is listed as “negligible effects”. Also, the “V1/2 of TRPV1 voltage activation with isoflurane (Boltzmann fit)” value on TRPV1 (isoflurane 0.9 mM, control 161.5±2.7 mV) amounted to 129.0±3.6 mV. Also, the “Neurons with evoked currents” value in experiment [1] stood at 31%. In addition, the “Activation of TRPM8 currents” value on TRPM8 (0.9 mM (2.9 MAC)) is recorded as “failed to activate”. Moreover, on TRPM8 (setting [3]), the “Effects at TRPM8 at holding potential −50 mV” value is reported as “negligible effects”.

Consider `FC(F)OC(F)C(F)(F)F` (centres unmarked) [desflurane], for which the “Ca2+ responses in neurons from TRPA1-null mice” value in experiment [2] was “no responses”. Besides, the “Sensitivity of mTRPA1-dTM5 chimera” value in the experiment with mTRPA1-dTM5 is given as “abolished”. Besides, the “Response of dTRPA1-mN chimera” value on dTRPA1-mN chimera is given as “no responses”. For the same compound, in the experiment with DRG neurons, the “Neurons with evoked Ca2+ increase” value is reported as 36 of 123.
